Experimental data: ChEMBL document CHEMBL1201862, “PubChem BioAssay data set” (2004)
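Each compound was tested at five concentrations against cells in 96-well plates for 48 hours. Here, GI50 denotes the concentration required for 50% inhibition of growth.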 Active and inactive are the calls of the source. Rule as the data show it: active = GI50 up to about 1.1 µM and inactive = higher.

Columns and labels:
Experiment in all cases: DTP human tumour cell line panel, 48 h
[1] = tested on: UO-31
[2] = tested on: T47D
[3] = tested on: A549
[4] = tested on: EKVX
[5] = tested on: MOLT-4
[6] = tested on: HT-29
[7] = tested on: ACHN
[8] = tested on: NCI-H23
[9] = tested on: OVCAR-4
[10] = tested on: RXF 393
[11] = tested on: HL-60
[12] = tested on: OVCAR-3
[13] = tested on: SF-539
[14] = tested on: MDA-MB-435
[15] = tested on: K562
[16] = tested on: CAKI-1
[17] = tested on: NCI-H522
[18] = tested on: SW-620
[19] = tested on: HOP-62
[20] = tested on: M14
[21] = tested on: U-251
[22] = tested on: IGROV-1
[23] = tested on: PC-3
[24] = tested on: OVCAR-8
[25] = tested on: MDA-N
[26] = tested on: MDA-MB-231
[27] = tested on: SF-268
[28] = tested on: SNB-19
[29] = tested on: A498
[30] = tested on: BT-549
[31] = tested on: HCT-116
[32] = tested on: NCI-H226
[33] = tested on: HCT-15
[34] = tested on: UACC-62
[35] = tested on: MCF7
[36] = tested on: SK-MEL-2
[37] = tested on: OVCAR-5
[38] = tested on: HCC 2998
[39] = tested on: HOP-92
[40] = tested on: LOX IMVI
[41] = tested on: SK-MEL-5
[42] = tested on: TK-10
[43] = tested on: NCI/ADR-RES
[44] = tested on: NCI-H460
[45] = tested on: Malme-3M
[46] = tested on: SNB-75
[47] = tested on: SK-OV-3
[48] = tested on: DU-145
[49] = tested on: 786-0
[50] = tested on: COLO 205
[51] = tested on: SF-295
[52] = tested on: SR
[53] = tested on: Hs-578T
[54] = tested on: SN12C
[55] = tested on: UACC-257
[56] = tested on: CCRF-CEM
[57] = tested on: RPMI-8226
[58] = tested on: KM12
[59] = tested on: SK-MEL-28

Structure (SMILES): O=C1c2ccccc2-c2ccc(N(Cc3ccc(Br)cc3)Cc3ccc(Br)cc3)cc21
- GI50 [1]: > 100 µM (inactive)
- GI50 [2]: > 100 µM (inactive)
- GI50 [3]: 22.3 µM (inactive)
- GI50 [4]: > 100 µM (inactive)
- GI50 [5]: 36.2 µM (inactive)
- GI50 [6]: > 100 µM (inactive)
- GI50 [7]: > 100 µM (inactive)
- GI50 [8]: > 100 µM (inactive)
- GI50 [9]: > 100 µM (inactive)
- GI50 [10]: > 100 µM (inactive)
- GI50 [11]: 20.7 µM (inactive)
- GI50 [12]: > 100 µM (inactive)
- GI50 [13]: > 100 µM (inactive)
- GI50 [14]: > 100 µM (inactive)
- GI50 [15]: > 100 µM (inactive)
- GI50 [16]: > 100 µM (inactive)
- GI50 [17]: > 100 µM (inactive)
- GI50 [18]: > 100 µM (inactive)
- GI50 [19]: > 100 µM (inactive)
- GI50 [20]: > 100 µM (inactive)
- GI50 [21]: > 100 µM (inactive)
- GI50 [22]: > 100 µM (inactive)
- GI50 [23]: > 100 µM (inactive)
- GI50 [24]: > 100 µM (inactive)
- GI50 [25]: > 100 µM (inactive)
- GI50 [26]: > 100 µM (inactive)
- GI50 [27]: > 100 µM (inactive)
- GI50 [28]: > 100 µM (inactive)
- GI50 [29]: > 100 µM (inactive)
- GI50 [30]: > 100 µM (inactive)
- GI50 [31]: > 100 µM (inactive)
- GI50 [32]: > 100 µM (inactive)
- GI50 [33]: > 100 µM
- GI50 [34]: > 100 µM (inactive)
- GI50 [35]: > 100 µM (inactive)
- GI50 [36]: > 100 µM (inactive)
- GI50 [37]: > 100 µM (inactive)
- GI50 [38]: > 100 µM (inactive)
- GI50 [39]: > 100 µM (inactive)
- GI50 [40]: > 100 µM (inactive)
- GI50 [41]: > 100 µM (inactive)
- GI50 [42]: > 100 µM (inactive)
- GI50 [43]: > 100 µM (inactive)
- GI50 [44]: 9.82 µM (inactive)
- GI50 [45]: > 100 µM (inactive)
- GI50 [46]: > 100 µM (inactive)
- GI50 [47]: > 100 µM (inactive)
- GI50 [48]: > 100 µM (inactive)
- GI50 [49]: > 100 µM (inactive)
- GI50 [50]: > 100 µM (inactive)
- GI50 [51]: > 100 µM (inactive)
- GI50 [52]: 2.44 µM (inactive)
- GI50 [53]: > 100 µM (inactive)
- GI50 [54]: > 100 µM (inactive)
- GI50 [55]: > 100 µM (inactive)
- GI50 [56]: 11.1 µM (inactive)
- GI50 [57]: > 100 µM (inactive)
- GI50 [58]: > 100 µM (inactive)
- GI50 [59]: > 100 µM (inactive)

Structure (SMILES): CC1OC(OC2C(O)COC(OC3C(C)OC(OC4C(OC(=O)[C@]56CCC(C)(C)C[C@@H]5C5=CCC7[C@@]8(C)C[C@H](O)[C@H](OC9OC(CO)C(O)C(O)C9O)[C@@](C)(CO)[C@@H]8CC[C@@]7(C)[C@]5(C)CC6)OCC(O)C4O)C(O)C3OC3OCC(O)(CO)C3O)C2O)C(O)C(O)C1O (some centres not stated)
- GI50 [1]: 3.36 µM (inactive)
- GI50 [2]: 18.8 µM (inactive)
- GI50 [3]: 4.62 µM (inactive)
- GI50 [4]: 4.16 µM (inactive)
- GI50 [5]: 15.7 µM (inactive)
- GI50 [6]: 17.5 µM (inactive)
- GI50 [7]: 12.5 µM (inactive)
- GI50 [8]: 9.31 µM (inactive)
- GI50 [9]: 15.7 µM (inactive)
- GI50 [10]: 14.7 µM (inactive)
- GI50 [11]: 8.73 µM (inactive)
- GI50 [12]: 18.9 µM (inactive)
- GI50 [13]: 20.8 µM (inactive)
- GI50 [14]: 17.4 µM (inactive)
- GI50 [15]: 28.5 µM (inactive)
- GI50 [16]: 2.58 µM (inactive)
- GI50 [17]: 16.1 µM (inactive)
- GI50 [18]: 11.3 µM (inactive)
- GI50 [19]: 15.1 µM (inactive)
- GI50 [20]: 3.33 µM (inactive)
- GI50 [21]: 16.3 µM (inactive)
- GI50 [22]: 13.3 µM (inactive)
- GI50 [23]: 11.9 µM (inactive)
- GI50 [24]: 18.5 µM (inactive)
- GI50 [25]: 12.6 µM (inactive)
- GI50 [26]: 12.6 µM (inactive)
- GI50 [27]: 10.2 µM (inactive)
- GI50 [28]: 14.7 µM (inactive)
- GI50 [29]: 3.97 µM (inactive)
- GI50 [30]: 16.6 µM (inactive)
- GI50 [31]: 13.9 µM (inactive)
- GI50 [32]: 16.9 µM (inactive)
- GI50 [33]: 16.1 µM
- GI50 [34]: 13.2 µM (inactive)
- GI50 [35]: 25.5 µM (inactive)
- GI50 [36]: 13.8 µM (inactive)
- GI50 [37]: 8.93 µM (inactive)
- GI50 [38]: 5.18 µM (inactive)
- GI50 [39]: 26.6 µM (inactive)
- GI50 [40]: 19.8 µM (inactive)
- GI50 [41]: 13.3 µM (inactive)
- GI50 [42]: 14.5 µM (inactive)
- GI50 [43]: 18.8 µM (inactive)
- GI50 [44]: 18.7 µM (inactive)
- GI50 [45]: 12 µM (inactive)
- GI50 [46]: 21 µM (inactive)
- GI50 [47]: 17.7 µM (inactive)
- GI50 [48]: 14.3 µM (inactive)
- GI50 [49]: 12.4 µM (inactive)
- GI50 [50]: 2.51 µM (inactive)
- GI50 [51]: 13.6 µM (inactive)
- GI50 [52]: 13.8 µM (inactive)
- GI50 [53]: 7.48 µM (inactive)
- GI50 [54]: 4.3 µM (inactive)
- GI50 [55]: 9.77 µM (inactive)
- GI50 [56]: 18.5 µM (inactive)
- GI50 [57]: 29.2 µM (inactive)
- GI50 [58]: 18.8 µM (inactive)
- GI50 [59]: 3.29 µM (inactive)

Structure (SMILES): C=C1C(=O)O[C@H]2C/C(C)=C/CC[C@@]3(C)O[C@](C)(CC[C@@H]3I)[C@@H](I)C[C@@H]12
- GI50 [1]: 5.66 µM (inactive)
- GI50 [2]: 5.46 µM (inactive)
- GI50 [3]: 6.78 µM (inactive)
- GI50 [4]: 7.16 µM (inactive)
- GI50 [5]: 0.925 µM (active)
- GI50 [6]: 3.37 µM (inactive)
- GI50 [7]: 7.03 µM (inactive)
- GI50 [8]: 8.69 µM (inactive)
- GI50 [9]: 6.14 µM (inactive)
- GI50 [10]: 3.97 µM (inactive)
- GI50 [11]: 0.893 µM (active)
- GI50 [12]: 3.21 µM (inactive)
- GI50 [13]: 6.4 µM (inactive)
- GI50 [14]: 3.86 µM (inactive)
- GI50 [15]: 1.95 µM (inactive)
- GI50 [16]: 7.19 µM (inactive)
- GI50 [17]: 3.05 µM (inactive)
- GI50 [18]: 3.81 µM (inactive)
- GI50 [19]: 8.59 µM (inactive)
- GI50 [20]: 10.9 µM (inactive)
- GI50 [21]: 4.49 µM (inactive)
- GI50 [22]: 1.78 µM (inactive)
- GI50 [23]: 4.91 µM (inactive)
- GI50 [24]: 1.88 µM (inactive)
- GI50 [25]: 2.49 µM (inactive)
- GI50 [26]: 6.75 µM (inactive)
- GI50 [27]: 6.92 µM (inactive)
- GI50 [28]: 6.95 µM (inactive)
- GI50 [29]: 9.68 µM (inactive)
- GI50 [30]: 4.75 µM (inactive)
- GI50 [31]: 2.92 µM (inactive)
- GI50 [32]: 0.869 µM (active)
- GI50 [33]: 2.4 µM
- GI50 [34]: 4.16 µM (inactive)
- GI50 [35]: 2.25 µM (inactive)
- GI50 [36]: 9.02 µM (inactive)
- GI50 [37]: 10.2 µM (inactive)
- GI50 [38]: 4.09 µM (inactive)
- GI50 [39]: 5.83 µM (inactive)
- GI50 [40]: 1.56 µM (inactive)
- GI50 [41]: 3.32 µM (inactive)
- GI50 [42]: 6.03 µM (inactive)
- GI50 [43]: 1.44 µM (inactive)
- GI50 [44]: 6.38 µM (inactive)
- GI50 [45]: 7.59 µM (inactive)
- GI50 [46]: 6.03 µM (inactive)
- GI50 [47]: 7.24 µM (inactive)
- GI50 [48]: 5.04 µM (inactive)
- GI50 [49]: 4.68 µM (inactive)
- GI50 [50]: 3.39 µM (inactive)
- GI50 [51]: 6.84 µM (inactive)
- GI50 [52]: 1.5 µM (inactive)
- GI50 [53]: 8.49 µM (inactive)
- GI50 [54]: 4.2 µM (inactive)
- GI50 [55]: 5.9 µM (inactive)
- GI50 [56]: 0.592 µM (active)
- GI50 [57]: 0.959 µM (active)
- GI50 [58]: 3.61 µM (inactive)
- GI50 [59]: 7.01 µM (inactive)
